From PubChem BioAssay (NCI) come the findings set out here.

Experiment in all cases: NCI anticancer screen, dose series, 48 h
Assay [1] has as its system 786-0 renal.
Assay [2] concerns ACHN renal.
For assay [3], the system named is DU-145 prostate.
Assay [4] concerns MALME-3M melanoma.
The test system of assay [5] is NCI-H460 lung.
For assay [6], the system named is OVCAR-3 ovarian.
The subject of assay [7] is OVCAR-8 ovarian.
Assay [8] concerns SW-620 colon.
Assay [9] concerns UO-31 renal.
Assay [10] deals with IGROV1 ovarian.

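Step 1: Grow cells in 96-well plates. Step 2: Expose to compound for 48 hours at 5 concentrations. Step 3: Interpolate endpoints linearly; if unreached, use highest concentration. The concentration for 50% growth inhibition is given as GI50. TGI is the concentration that stops growth completely.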

Turning to `C=C1CC[C@@H]2[C@](C)(COC(C)=O)[C@H](OC(C)=O)CC[C@@]2(C)[C@@H]1CC(Sc1ccccc1)C1=CCOC1=O` (some centres not stated), the GI50 in assay [1] is 1.9 µM; in assay [2], 1.34 µM; in assay [3], 1.41 µM; in assay [4], 1.74 µM; in assay [5], 2.24 µM; in assay [6], 1.14 µM. Besides, the GI50 in [7] is 1.46 µM; in [8], 0.716 µM; in assay [9] it was 1.2 µM. Also, the TGI in assay [1] was 3.64 µM; in assay [2], 2.84 µM; in assay [3] it was 2.74 µM; in [4], 3.63 µM; in assay [5], 6.03 µM; in assay [6], 2.37 µM. Moreover, the TGI in [7] was found to be 4.7 µM; in assay [8] it was 3.64 µM; in assay [9], 2.53 µM.

On to `C=C1C(=O)OC2CCN3CC=C(COC(=O)C(C)(O)C4(CO4)C1C)C23` (configuration not stated), for which the TGI in assay [1], in assay [2], in [3], in assay [10], in assay [4] and in [5] was greater than 100 µM each time. Further, the TGI in assay [7], in assay [8] and in assay [9] was greater than 100 µM in each case.

As for `O=C(Nc1nc2ccc(C(F)(F)F)cc2s1)c1cc(Cl)ccc1O`, the GI50 in assay [1] was 2.14 µM; in [2] it was 0.894 µM; in assay [3], 1.59 µM; in assay [10], 0.621 µM; in [4], 0.626 µM; in assay [5], 0.414 µM. Also, the GI50 was 0.422 µM in assay [6], 1.12 µM in assay [7], 0.878 µM in assay [8] and 1.19 µM in assay [9]. The TGI in assay [1] is 30.6 µM; in assay [2], greater than 100 µM; in assay [3] it was greater than 100 µM; in assay [10], greater than 100 µM; in assay [4], 4.48 µM; in assay [5], greater than 100 µM. Also, the TGI is 56 µM in assay [6], greater than 100 µM in assay [7], 36.3 µM in assay [8] and 8.79 µM in assay [9].

In the case of `COc1ccc(C(C)=O)cc1N1C(=O)C2C(C1=O)C1(c3ccccc3)C(=O)C2(c2ccccc2)C(c2ccc(C)cc2)=C1c1ccc(C)cc1` (configuration not stated), the GI50 in [1], in assay [2], in assay [3], in assay [10], in assay [4] and in assay [5] was greater than 100 µM throughout. The GI50 in assay [6], in [7], in assay [8] and in [9] was greater than 100 µM throughout. Also, the TGI in assay [1], in [2], in assay [3], in assay [10], in [4] and in assay [5] was greater than 100 µM throughout. The TGI in [6], in [7], in [8] and in assay [9] was greater than 100 µM in each case.

As for `O=C1/C(=C/c2ccc(Br)cc2)COc2ccc(O)c(O)c21`, the GI50 was 0.678 µM in [1]; 0.828 µM in assay [2]; 1.31 µM in assay [3]; 0.631 µM in [10]; 1.11 µM in assay [4]; 1.68 µM in assay [5]. The GI50 in assay [6] is 0.493 µM; in [7], 0.675 µM; in assay [8], 0.671 µM; in [9], 0.307 µM. Further, the TGI in [1] turned out to be 2.57 µM; in assay [2] it was 2.09 µM; in assay [3] it was 2.9 µM; in assay [10], 2.16 µM; in assay [4], 3.35 µM; in [5], 4.06 µM. Moreover, the TGI in assay [6] came to 1.56 µM; in assay [8] it was 2.22 µM; in assay [9], 1.07 µM.

`CC(C)CCN1c2nc(Nc3cc(F)c(O)c(F)c3)ncc2N(C)C(=O)C1C` (configuration not stated): the GI50 in [1] is 7.09 µM; in [2], 3.21 µM; in assay [3] it was 6.41 µM; in assay [10], 8.83 µM; in [4], 6.63 µM; in assay [5], 3.91 µM. Further, the GI50 in assay [6] is 3.65 µM; in assay [7], 17.6 µM; in assay [8], 4.09 µM; in assay [9], 0.939 µM. Further, the TGI is 52.9 µM in [1]; greater than 59.5 µM in assay [2]; 77.5 µM in assay [3]; greater than 61.2 µM in assay [10]; 64 µM in assay [4]; 17 µM in assay [5]. Besides, the TGI is 24.1 µM in [6], greater than 100 µM in [7], 27.4 µM in assay [8] and 16.8 µM in [9].

As to `CC(C)c1ccc2c(c1)CC[C@@H]1[C@@](C)(C(=O)O)CCC[C@]21C`, the GI50 in assay [1] is 4.58 µM; in [2], 11.4 µM; in assay [3], 4.39 µM; in [10], 5.55 µM; in assay [5] it was 5.07 µM; in assay [6], 1.8 µM. Besides, the GI50 in assay [7] is 2.16 µM; in assay [8], 10.2 µM; in assay [9], 2.76 µM. For the same compound, the TGI in [1] was 17 µM; in [2] it was 23.5 µM; in assay [3] it was 19.6 µM; in assay [10], 29 µM; in assay [5], 18.4 µM; in [6], 13.8 µM. Also, the TGI was 7.87 µM in assay [7], 22.8 µM in [8] and 12 µM in assay [9].

Consider `CS(=O)(=O)Nc1ccc2c(c1)oc(=O)c1ccccc12`, for which the TGI in [1], in assay [2], in [3], in assay [10], in assay [4] and in assay [5] was greater than 100 µM in each case. Besides, the TGI in [6], in assay [7], in assay [8] and in assay [9] was greater than 100 µM each time.

In the case of `COc1cc2nc(-c3ccc(Cl)cc3)cc(OCCCN3CCCCC3)c2cc1OC`, the GI50 in assay [1] is 2.62 µM; in assay [2] it was 2.45 µM; in assay [3] it was 2.54 µM; in [10] it was 0.838 µM; in [4], 1.74 µM; in assay [5], 0.842 µM. Also, the values for the GI50 in assay [6], in assay [7] and in assay [8] were 3.23 µM, 1.77 µM and 3.09 µM, respectively. The TGI was greater than 100 µM in assay [1]; greater than 100 µM in assay [2]; greater than 100 µM in [3]; greater than 100 µM in [10]; 4.53 µM in [4]; greater than 100 µM in assay [5]. Also, the TGI in [6], in assay [7] and in assay [8] was greater than 100 µM each time.

On to `COc1cc(C#CC(=O)OC/C=C/c2ccc3c(c2)OCO3)cc(OC)c1OC`, for which the TGI in assay [1] was greater than 100 µM; in assay [2], greater than 100 µM; in [3], greater than 100 µM; in assay [4], 47.7 µM; in [5] it was 77.1 µM; in assay [6], 63.3 µM. Moreover, the figures for the TGI in assay [7], in [8] and in assay [9] were greater than 100 µM, 80.6 µM and 37 µM, respectively.

Regarding `C=C(CNCc1ccccc1)c1ccc(C(=O)Nc2ccccc2N)cc1`, the GI50 in assay [1] was 4.44 µM; in assay [2], 9.79 µM; in [3], 5.05 µM; in [10], 3.21 µM; in assay [5], greater than 100 µM; in assay [6], 7.31 µM. The figures for the GI50 in assay [7], in [8] and in assay [9] were 2.17 µM, 8.5 µM and 3.64 µM, respectively. For the same compound, the TGI in assay [1] was greater than 100 µM; in assay [2], 84.3 µM; in assay [3], greater than 100 µM; in assay [10], 36.9 µM; in assay [5], greater than 100 µM; in assay [6], 34.2 µM. For the same compound, the results for the TGI in [7], in assay [8] and in [9] were greater than 100 µM, greater than 100 µM and 18.2 µM, respectively.

As to `Cn1cc(CO)c2c1C(=O)C=C(N1CC1)C2=O`, the GI50 was less than 0.01 µM in assay [1]; less than 0.01 µM in assay [2]; less than 0.01 µM in assay [3]; less than 0.0104 µM in assay [10]; less than 0.01 µM in [5]; less than 0.0133 µM in [6]. The GI50 in [7] and in assay [8] was less than 0.01 µM throughout. Further, the TGI in assay [1] turned out to be 0.108 µM; in assay [2], 0.0102 µM; in [3], 0.131 µM; in assay [10], 1.8 µM; in assay [5], 1.27 µM; in assay [6], 0.0375 µM. Moreover, the TGI is 3.58 µM in [7] and greater than 31.6 µM in [8].

Regarding `OC[C@H]1C[C@](O)(c2ccc(Cl)cc2)[C@@H](c2ccc(Cl)cc2)O1`, the GI50 was 22.4 µM in assay [1]; 28 µM in assay [2]; 22.1 µM in assay [3]; 21.5 µM in assay [4]; 20.2 µM in assay [5]; 26.2 µM in assay [6]. For the same compound, the figures for the GI50 in assay [7], in assay [8] and in assay [9] were 31.2 µM, 27.3 µM and 19.4 µM, respectively. Also, the TGI in [1] worked out at 55.9 µM; in [2], 97.3 µM; in assay [3] it was 56.9 µM; in assay [4], 45.4 µM; in assay [5], 48.7 µM; in assay [6] it was 58.9 µM. Also, the TGI in assay [7] is 91.7 µM; in [8], greater than 100 µM; in assay [9] it was 50.3 µM.

As to `O=C(O)CCC(=O)c1ccc[nH]1`, the TGI in assay [1], in assay [2], in assay [3], in assay [10], in assay [4] and in assay [5] was greater than 100 µM throughout. Also, the TGI in assay [6], in [7] and in assay [9] was greater than 100 µM throughout.

Take `C=COCCCOc1ccccc1`: the GI50 in [1] and in assay [3] was greater than 100 µM each time. The TGI in [1], in assay [2], in [3], in assay [4], in assay [5] and in assay [6] was greater than 100 µM throughout. Besides, the TGI in [7], in assay [8] and in assay [9] was greater than 100 µM each time.

`COc1cc(C2CC(c3cccc(Br)c3)=NN2C(C)=O)cc(OC)c1OC` (configuration not stated): the GI50 in assay [1] was 0.771 µM; in assay [2] it was 0.71 µM; in [3] it was 0.371 µM; in assay [10], 2.04 µM; in [5] it was 0.344 µM; in assay [6], 0.158 µM. For the same compound, the GI50 in assay [7] is 0.618 µM; in [8] it was 0.309 µM; in assay [9] it was 3.33 µM. In addition, the TGI in assay [1] is greater than 65.4 µM; in assay [2] it was greater than 84.4 µM; in assay [3], 6.61 µM; in [10], greater than 100 µM; in assay [5], 11.7 µM; in assay [6], 0.61 µM. Further, the TGI in assay [7] is greater than 46.2 µM; in [8] it was greater than 100 µM; in assay [9] it was greater than 65.6 µM.

As to `C=C1C(=O)O[C@@H]2C[C@@H]1CC/C(C)=C/CC/C(C)=C/CC[C@@]2(C)O`, the GI50 is 11.5 µM in assay [1]; 13 µM in [2]; 14 µM in [3]; 0.766 µM in assay [10]; 16.5 µM in [5]; 5.59 µM in assay [6]. In addition, the GI50 in [7] was 21.7 µM; in [8] it was 25.3 µM; in [9], 16.3 µM. Besides, the TGI is 24 µM in assay [1]; 28.1 µM in assay [2]; 30.2 µM in assay [3]; 20.2 µM in assay [10]; 43.2 µM in assay [5]; 18.7 µM in assay [6]. Further, the TGI amounted to 85.4 µM in assay [7], 52.5 µM in assay [8] and 33.4 µM in assay [9].

Consider `CN(C)N=Nc1ccc(NC=O)cc1`, for which the TGI in assay [1], in assay [2], in assay [3], in assay [10], in [5] and in [6] was greater than 100 µM each time. Besides, the TGI in [7], in assay [8] and in assay [9] was greater than 100 µM throughout.

Consider `COc1cccc(/C=C/c2cc(OC)c(OC)c(OC)c2)c1`, for which the TGI in [1], in assay [2], in assay [10], in assay [4], in assay [5] and in [6] was greater than 100 µM throughout. The TGI in [7], in [8] and in assay [9] was greater than 100 µM in each case.
